Test results reported in patent US12606528B2, “Methods and materials for inhibiting NF-kB activity” (University of Pittsburgh - Of the Commonwealth System of …, priority 2019, dated 2026).
Read-outs that look alike come from different tables or passages of the source.

System: NF-κB
Test: NF-κB assay: THP1-NF-κB-LUC cells, LPS-stimulated secreted luciferase
Type: cell-based
Settings: THP1-NF-κB-LUC cells, read-out: IC50 (NF-κB assay)
Procedure: FIG. 1 contains line plots showing NF-κB activity of exemplified compounds. 25k THP1-NF-κB-LUC cells were dispensed into 384 well plate (per well). Cells were treated with compounds (2 μM and 0.2 μM) for 2 hours before addition of LPS (10 ng/mL) for 18 hours. Secreted luciferase activity were measured using quant-luc reagents (1 bag of luc reagent dilute to 40 mL, use 10 μL per well). Data were normalized to vehicle control and graphed. Structures of selected exemplified compounds are shown.
FIG. 2 contains heat charts showing NF-κB activity of exemplified compounds as a function of concentration. 25k THP1-NF-κB-LUC cells were dispensed into 384 well plate (per well). Cells were treated with compounds (with serial dilution) for 2 hours before addition of LPS (10 ng/ml) for 18 hours. Secreted luciferase activity were measured using quant-luc reagents (1 bag of luc reagent dilute to 40 mL, use 10 μL per well). Structures of selected exemplified compounds are shown.
25k THP1-NF-κB-LUC cells were dispensed into 384 well plate (per well). Cells were treated with compounds with various concentrations for 2 hours before addition of LPS (10 ng/mL) for 18 hours. Secreted luciferase activity were measured using quant-luc reagents (1 bag of luc reagent dilute to 40 mL, use 10 μL per well). Data were normalized to vehicle control and graphed. Compound IC50 towards inhibiting NF-κB were determined through Prism. Similarly, 10k human PBMCs cells were cultured in 384 well plate (per well). Cells were treated with compounds with various concentrations for 2 hours before addition of LPS (10 ng/ml) for 18 hours, and supernatants were collected and assayed for TNF ELISA. Compound IC50 towards inhibiting TNF release were determined through Prism. • Activity: “+”>10 μM, “++”>1 μM and <10 μM, “+++”>0.1 μM and <1 μM, “++++”<0.1 μM.

[1] = compounds 2 hours before LPS (10 ng/mL) for 18 hours, secreted luciferase

Compound	IC50 (LPS-stimulated) [nM]	IC50 [1] [nM]
CCCS(=O)(=O)c1oc(-c2ccc(F)cc2)nc1S(=O)(=O)c1ccccc1 [BC18520]	< 100	–
CC(C)CCNC(=O)c1ccc2nc(-c3ccc(F)cc3)c(-c3ccc(F)cc3)nc2c1 [BC18442]	< 100	–
CCCCNC(=O)c1ccc2nc(-c3ccccc3)c(-c3ccccc3)nc2c1 [BC18432]	100 to 1000	–
NC(=O)CSc1oc(-c2ccc(F)cc2)nc1S(=O)(=O)c1ccc(Cl)cc1 [BC18551]	> 10000	–
COc1ccc2cc(S(=O)(=O)c3ccc(C)c(Cl)c3)c(=O)oc2c1 [BC18316]	–	> 10000
Cc1ccc(S(=O)(=O)c2nc(-c3ccc(F)cc3)oc2SCC(C)C)cc1 [BC18528]	> 10000	–
CCS(=O)(=O)c1oc(-c2ccc(F)cc2)nc1S(=O)(=O)c1ccccc1 [BC18508]	< 100	–
O=C(c1ccc2nc(-c3ccccc3)c(-c3ccccc3)nc2c1)N1CCN(c2ccc(F)cc2)CC1 [BC18451]	100 to 1000	–
CSc1ccc(CNC(=O)c2ccc3nc(-c4ccc(F)cc4)c(-c4ccc(F)cc4)nc3c2)cc1 [BC18413]	100 to 1000	–
O=S(=O)(Cc1ccc(F)cc1)c1oc(-c2ccccc2)nc1S(=O)(=O)c1ccccc1 [BC18523]	> 10000	–
CCC(C)Sc1oc(-c2ccc(F)cc2)nc1S(=O)(=O)c1ccc(F)cc1 (centres unmarked) [BC18518]	1000 to 10000	–
CCCN(CCC)CCNC(=O)c1ccc2nc(-c3cccc(C)c3)c(-c3cccc(C)c3)nc2c1 [BC18419]	1000 to 10000	–
CC(=O)CSc1oc(-c2ccc(F)cc2)nc1S(=O)(=O)c1ccccc1 [BC18503]	1000 to 10000	–
CCOc1ccc(-c2nc3ccc(C(=O)NCCN(C)C)cc3nc2-c2ccc(OCC)cc2)cc1 [BC18477]	1000 to 10000	–
O=C(NCc1ccc(F)cc1)c1ccc2nc(-c3ccc(F)cc3)c(-c3ccc(F)cc3)nc2c1 [BC18420]	100 to 1000	–
CCCNC(=O)c1ccc2nc(-c3cccc(C)c3)c(-c3cccc(C)c3)nc2c1 [BC18402]	1000 to 10000	–
CCN(CC)CCCNC(=O)c1ccc2nc(-c3ccccc3)c(-c3ccccc3)nc2c1 [BC18417]	< 100	–
CCCCn1cc(S(=O)(=O)c2ccc(C)cc2)c(=O)c2cc(Cl)ccc21 [BC18336]	–	> 10000
O=C(NCc1cccnc1)c1ccc2nc(-c3ccc(F)cc3)c(-c3ccc(F)cc3)nc2c1 [BC18458]	< 100	–
CCCCS(=O)(=O)c1oc(-c2ccc(F)cc2)nc1S(=O)(=O)c1ccccc1 [BC18542]	< 100	–
O=C(NCCN1CCOCC1)c1ccc2nc(-c3ccccc3)c(-c3ccccc3)nc2c1 [BC18464]	< 100	–
CC(C)Sc1oc(-c2ccccc2)nc1S(=O)(=O)c1ccc(Cl)cc1 [BC18546]	1000 to 10000	–
COc1ccc(S(=O)(=O)c2cn(CC(=O)Nc3ccc(F)cc3)c3ccc(C)cc3c2=O)cc1 [BC18335]	–	> 10000
CC(C)OCCCNC(=O)c1ccc2nc(-c3ccc(F)cc3)c(-c3ccc(F)cc3)nc2c1 [BC18416]	< 100	–
CCOc1ccc2c(c1)c(=O)c(S(=O)(=O)c1ccc(Cl)cc1)cn2C [BC18327]	–	> 10000
Cc1cc(C)c(S(=O)(=O)c2ccc(Br)cc2)c(=O)[nH]1 [BC18315]	–	> 10000

More lines, now with the values ahead:

IC50 (LPS-stimulated) [nM]	IC50 [1] [nM]	Compound
< 100	–	CC(C)CS(=O)(=O)c1oc(-c2ccc(F)cc2)nc1S(=O)(=O)c1ccccc1 [BC18575]
–	> 10000	CCCCN(c1ccccc1)S(=O)(=O)c1cc2c(cc1C)NC(=O)CO2 [BC181304]
–	< 100	Cc1cc2c(cc1S(=O)(=O)Nc1ccccc1)OCC(=O)N2 [BC181310]
–	> 10000	COc1ccc(NS(=O)(=O)c2cc3c(cc2C)N(C(C)=O)CCO3)c(OC)c1 [BC181382]
–	1000 to 10000	Cc1ccc(NS(=O)(=O)c2cc3c(cc2C)NC(=O)CO3)cc1C [BC181368]
–	1000 to 10000	CCc1cccc(NS(=O)(=O)c2cc3c(cc2C)NC(=O)CO3)c1 [BC181347]
–	< 100	CC(=O)c1cccc(NS(=O)(=O)c2cc3c(cc2C)NC(=O)CO3)c1 [BC181303]
1000 to 10000	–	CCSc1oc(-c2ccc(F)cc2)nc1S(=O)(=O)c1ccc(C)cc1 [BC18560]
–	100 to 1000	Cc1cc2c(cc1S(=O)(=O)Nc1ccccc1Br)OCC(=O)N2 [BC181344]
–	< 100	Cc1cc2c(cc1S(=O)(=O)Nc1cccc(F)c1)OCC(=O)N2 [BC181377]
–	> 10000	CCN(CC)c1ccc(NS(=O)(=O)c2cc3c(cc2C)NC(=O)CO3)c(C)c1 [BC181348]
> 10000	–	CSc1oc(-c2ccc(F)cc2)nc1S(=O)(=O)c1ccc(Cl)cc1 [BC18562]
